Laboratory results from paper PMC10283505, “CVM-1118 (foslinanib), a 2-phenyl-4-quinolone derivative, promotes apoptosis and inhibits vasculogenic mimicry via targeting TRAP1” (Pathology and Oncology Research, 2023).

Assays:
M14 = assay: NCI 60 cytotoxicity screening; assay type: cell-based; settings: Homo sapiens; M14, Melanoma
NCI-H460 = assay: NCI 60 cytotoxicity screening; assay type: cell-based; settings: Homo sapiens; NCI-H460, NSCLC
SK-MEL-5 = assay: NCI 60 cytotoxicity screening; assay type: cell-based; settings: Homo sapiens; SK-MEL-5, Melanoma
Integrin β4 = Integrin β4 (Homo sapiens, UniProt P16144); assay: Surface plasmon resonance (Biacore); assay type: binding; settings: Integrin β4, SPR
HCC-2998 = assay: NCI 60 cytotoxicity screening; assay type: cell-based; settings: Homo sapiens; HCC-2998, Colon

Sequence of Integrin β4 (P16144 28-1822): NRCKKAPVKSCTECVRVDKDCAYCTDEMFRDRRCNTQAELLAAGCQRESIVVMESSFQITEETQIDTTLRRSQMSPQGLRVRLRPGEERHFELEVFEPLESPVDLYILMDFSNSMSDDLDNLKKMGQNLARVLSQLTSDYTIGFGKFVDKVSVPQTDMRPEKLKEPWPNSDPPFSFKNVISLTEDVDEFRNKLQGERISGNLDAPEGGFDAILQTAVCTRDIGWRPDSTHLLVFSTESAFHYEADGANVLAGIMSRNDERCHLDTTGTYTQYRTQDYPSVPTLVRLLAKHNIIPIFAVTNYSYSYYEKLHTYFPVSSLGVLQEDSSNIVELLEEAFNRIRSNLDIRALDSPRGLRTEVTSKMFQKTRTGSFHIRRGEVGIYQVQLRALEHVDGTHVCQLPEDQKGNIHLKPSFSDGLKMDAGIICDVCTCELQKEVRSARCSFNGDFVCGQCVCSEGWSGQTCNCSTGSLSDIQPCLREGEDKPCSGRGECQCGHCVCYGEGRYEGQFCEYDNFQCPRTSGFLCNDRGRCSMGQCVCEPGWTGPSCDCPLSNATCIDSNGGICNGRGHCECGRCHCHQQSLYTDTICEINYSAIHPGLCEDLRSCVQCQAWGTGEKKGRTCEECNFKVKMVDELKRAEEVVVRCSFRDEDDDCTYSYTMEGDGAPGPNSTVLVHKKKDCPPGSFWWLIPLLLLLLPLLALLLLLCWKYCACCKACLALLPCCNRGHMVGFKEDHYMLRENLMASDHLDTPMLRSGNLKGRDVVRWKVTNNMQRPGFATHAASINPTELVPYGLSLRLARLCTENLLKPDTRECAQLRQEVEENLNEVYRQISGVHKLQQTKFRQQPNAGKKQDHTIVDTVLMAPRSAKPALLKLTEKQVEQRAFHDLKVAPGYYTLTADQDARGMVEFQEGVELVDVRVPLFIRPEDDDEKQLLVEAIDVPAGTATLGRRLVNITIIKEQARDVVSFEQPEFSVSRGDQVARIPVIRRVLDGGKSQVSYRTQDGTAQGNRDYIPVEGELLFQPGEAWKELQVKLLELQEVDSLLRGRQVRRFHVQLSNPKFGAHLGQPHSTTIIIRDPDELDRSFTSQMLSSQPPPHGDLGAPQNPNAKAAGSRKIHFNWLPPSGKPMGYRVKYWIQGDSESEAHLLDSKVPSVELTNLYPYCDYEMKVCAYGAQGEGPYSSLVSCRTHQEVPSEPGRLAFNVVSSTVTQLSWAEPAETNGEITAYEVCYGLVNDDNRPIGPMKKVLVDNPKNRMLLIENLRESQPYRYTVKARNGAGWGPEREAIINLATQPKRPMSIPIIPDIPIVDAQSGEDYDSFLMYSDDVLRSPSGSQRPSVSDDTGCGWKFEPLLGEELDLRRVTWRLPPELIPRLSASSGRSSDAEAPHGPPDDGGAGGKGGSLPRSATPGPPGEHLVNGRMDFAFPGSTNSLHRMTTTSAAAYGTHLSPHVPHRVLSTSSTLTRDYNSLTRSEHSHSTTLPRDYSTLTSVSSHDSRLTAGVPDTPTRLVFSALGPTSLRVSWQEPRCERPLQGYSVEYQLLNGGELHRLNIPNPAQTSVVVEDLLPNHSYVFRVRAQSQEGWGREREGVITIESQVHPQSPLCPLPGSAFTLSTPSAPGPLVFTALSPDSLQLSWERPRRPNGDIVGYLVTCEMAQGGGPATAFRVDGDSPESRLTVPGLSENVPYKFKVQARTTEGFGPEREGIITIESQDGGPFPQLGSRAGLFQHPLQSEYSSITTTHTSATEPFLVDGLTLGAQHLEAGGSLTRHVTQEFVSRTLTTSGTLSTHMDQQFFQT

COc1ccc2[nH]c(-c3cccc(F)c3)cc(=O)c2c1O [CVM-1125]
GI50 (M14): 18.9 nM | GI50 (NCI-H460): 32.8 nM | GI50 (SK-MEL-5): 29.8 nM | Association (ka) (Integrin β4): No dose dependent interaction | Dissociation (kd) (Integrin β4): No dose dependent interaction | KD (kd/ka) (Integrin β4): No dose dependent interaction | GI50 (HCC-2998): 32.1 nM
